From ChEMBL document CHEMBL1136347, “Synthesis of 17beta-estradiol platinum(II) complexes: biological evaluation on breast cancer cell lines” (Bioorg Med Chem Lett, 2003) come the findings set out here.

Holding throughout (type): functional, cell-based
Assay [1] relates to ZR-75-1. In words: In vitro inhibition of estrogen receptor positive human breast cancer ZR-75-1 cell proliferation.
For assay [2], the system named is MDA-MB-231. The assay is described as follows: In vitro inhibition of estrogen receptor negative human breast cancer MDA-MB-231 cell proliferation.
The test system of assay [3] is Hs-578T. The assay is described as follows: In vitro inhibition of estrogen receptor negative human breast cancer Hs 578.T cell proliferation.
The test system of assay [4] is MCF7. In words: In vitro inhibition of estrogen receptor positive human breast cancer MCF-7 cell proliferation.

With CISPLATIN, the IC50 in assay [1] is 9.3 µM; in assay [2], 12.7 µM; in assay [3], 9.1 µM; in assay [4] it was 16.7 µM.
With Cisplatin complex [listing 1 of 8 here], the IC50 in assay [1] was determined as 2.5 µM; in assay [2], 4.7 µM; in assay [3], 3.5 µM; in assay [4], 4 µM.
As to Cisplatin complex [listing 2 of 8 here], the IC50 in assay [1] was determined as 4.2 µM; in assay [2] it was 8.6 µM; in assay [3], 2.7 µM; in assay [4] it was 5.8 µM.
The like results for Cisplatin complex [listing 3 of 8 here] were, in that order, 5 µM, 4.8 µM, 4.1 µM and 4.3 µM.
On to Cisplatin complex [listing 4 of 8 here], for which the IC50 in assay [1] is 31.5 µM; in assay [2], greater than 40 µM; in assay [3], greater than 40 µM; in assay [4], greater than 40 µM.
For the substance Cisplatin complex [listing 5 of 8 here], the half-maximal inhibitory concentration (IC50) in assay [1] came to 16.4 µM; in assay [2], 18.5 µM; in assay [3] it was 28 µM; in assay [4], 31.5 µM.
With Cisplatin complex [listing 6 of 8 here], the concentration for half-maximal inhibition (IC50) is 15.8 µM in assay [1], 22.9 µM in assay [3] and 20 µM in assay [4].
Regarding Cisplatin complex [listing 7 of 8 here], the IC50 is 14 µM in assay [1], 12.7 µM in assay [2] and 17.3 µM in assay [3].
Regarding Cisplatin complex [listing 8 of 8 here], the IC50 in assay [1] worked out at 9.3 µM; in assay [2], 9.2 µM; in assay [3], 12.4 µM; in assay [4], 13.4 µM.

For orientation: IC50 means the concentration that inhibits the measured activity by half. Low values mean greater potency in that assay, high ones weaker potency in that assay.
